Experimental data published in US12226386B2, “Compositions and methods for treating biofilms” (The Regents of the University of California, priority 2018, dated 2025).

How the values were obtained:
[1] = test system: Candida and Staphylococcus biofilms; assay: biofilm assays (sustained inhibition and disruption), bacterial and fungal; type: cell-based, Candida albicans; Staphylococcus aureus; conditions: Tables 4 and 5
Procedure: In vitro biofilm formation was tested using two assays, sustained inhibition and disruption. Both assays assess biofilm formed on polystyrene plates. The first, tests the effects of amino acid solution on a developing biofilm, while the latter tests the effects of the solution on a pre-formed mature biofilm, both compared to media without supplemented amino acids.
Other amino acids in the blood of animals could combat bacterial and fungal biofilm and therefore may be useful in treating these bacterial and fungal infections that would lie on the external surfaces of infected animals such as humans and could also be used to combat these pathogens on instruments and surfaces that need to be treated. Two types of biofilm assays were performed: a sustained inhibition assay and a disruption assay. The sustained inhibition assay assessed the compound's ability to prevent biofilm development throughout all stages of biofilm formation, while the disruption assay assessed the compound's ability to break up an existing mature biofilm.
For fungal biofilm assays, all solutions were prepared in RPMI 1640 medium. All bacterial biofilm solutions were prepared in Tryptic Soy Broth (TSB), supplemented with 1% glucose (henceforth referred to as TSB-G). All subsequent procedures were performed in a manner that maintained sterility. A solution of each amino acid to be tested was prepared in weight to volume concentrations ranging from 0.1-5.0%. Amino acids were also tested in combinations. Compound solutions were homogenized with gentle agitation in the dark (4° C., 24 hours) before use.
Fungal strains were streaked on Yeast Peptone Dextrose (YPD) agar plates and incubated at 30° C. for 48 hours. A single colony from each strain to be tested was inoculated into YPD broth and grown for 12 hours, at 30° C., shaking at 225 rpm. For the fungal biofilm inhibition assay, 1 μl of saturated overnight cell culture was added to either 80 μL of RPMI-1640 or RPMI-1640 supplemented with the amino acid compound solution to be tested, in a 384-well plate. The cells were allowed to adhere to the plate for 90 minutes at 37° C. shaking at 350 rpm. Loosely bound cells were washed once with phosphate buffered saline (PBS) and 80 μl of RPMI-1640, or RPMI-1640 supplemented with the amino acid compound solution was added to the plate. The plate was further incubated for 24 hours at 37° C. shaking at 350 rpm. Media was carefully aspirated and the biofilm was measured by optical density at 600 nm. Twelve replicates were performed for each tested condition and the reported values are normalized to the control (RPMI-1640 media only). For the fungal biofilm disruption assays, 80 μL of RPMI-1640 was added to the plate, along with 1 μL of overnight cell culture. The cells were allowed to adhere to the plate for 90 minutes at 37° C. shaking at 350 rpm. Loosely bound cells were washed once with PBS and 80 μL of RPMI-1640 was added to the plate. The plate was further incubated for 24 hours at 37° C. shaking at 350 rpm. Media was carefully aspirated from the mature biofilm and 80 μL of RPMI-1640, or RPMI-1640 supplemented with the amino acid compound solution to be tested, was gently added to the plate. The plate was further incubated for 24 hours at 37° C. shaking at 350 rpm. Media was carefully aspirated and the biofilm was measured by optical density at 600 nm. Twelve replicates were performed for each tested condition and the reported values are normalized to the control (RPMI-1640 media only).
Bacterial strains were streaked on Blood Agar plates (5% sheep blood in Tryptic Soy Agar) and incubated at 37° C. for 24 hours. A single colony from each strain to be tested was inoculated in a TSB broth and grown for 12 hours, at 37° C. shaking at 225 rpm. For the bacterial biofilm inhibition assays, 1 μL of saturated overnight cell culture was added to either 80 μL of TSB-G, or TSB-G supplemented with the amino acid compound solution to be tested, in a 384-well plate. […]

[2] = test system: fungal biofilms (C. albicans); assay: biofilm assays (sustained inhibition and/or disruption), fungal; type: cell-based, Candida albicans; conditions: Tables 4 and 5
Procedure: Other amino acids in the blood of animals could combat bacterial and fungal biofilm and therefore may be useful in treating these bacterial and fungal infections that would lie on the external surfaces of infected animals such as humans and could also be used to combat these pathogens on instruments and surfaces that need to be treated. Two types of biofilm assays were performed: a sustained inhibition assay and a disruption assay. The sustained inhibition assay assessed the compound's ability to prevent biofilm development throughout all stages of biofilm formation, while the disruption assay assessed the compound's ability to break up an existing mature biofilm. For fungal biofilm assays, all solutions were prepared in RPMI 1640 medium. All bacterial biofilm solutions were prepared in Tryptic Soy Broth (TSB), supplemented with 1% glucose (henceforth referred to as TSB-G). All subsequent procedures were performed in a manner that maintained sterility. […] Amino acids were also tested in combinations. Compound solutions were homogenized with gentle agitation in the dark (4° C., 24 hours) before use. Fungal strains were streaked on Yeast Peptone Dextrose (YPD) agar plates and incubated at 30° C. for 48 hours. A single colony from each strain to be tested was inoculated into YPD broth and grown for 12 hours, at 30° C., shaking at 225 rpm. For the fungal biofilm inhibition assay, 1 μl of saturated overnight cell culture was added to either 80 μL of RPMI-1640 or RPMI-1640 supplemented with the amino acid compound solution to be tested, in a 384-well plate. The cells were allowed to adhere to the plate for 90 minutes at 37° C. shaking at 350 rpm. Loosely bound cells were washed once with phosphate buffered saline (PBS) and 80 μl of RPMI-1640, or RPMI-1640 supplemented with the amino acid compound solution was added to the plate. The plate was further incubated for 24 hours at 37° C. shaking at 350 rpm. Media was carefully aspirated and the biofilm was measured by optical density at 600 nm. Twelve replicates were performed for each tested condition and the reported values are normalized to the control (RPMI-1640 media only). For the fungal biofilm disruption assays, 80 μL of RPMI-1640 was added to the plate, along with 1 μL of overnight cell culture. The cells were allowed to adhere to the plate for 90 minutes at 37° C. shaking at 350 rpm. Loosely bound cells were washed once with PBS and 80 μL of RPMI-1640 was added to the plate. The plate was further incubated for 24 hours at 37° C. shaking at 350 rpm. Media was carefully aspirated from the mature biofilm and 80 μL of RPMI-1640, or RPMI-1640 supplemented with the amino acid compound solution to be tested, was gently added to the plate. The plate was further incubated for 24 hours at 37° C. shaking at 350 rpm. Media was carefully aspirated and the biofilm was measured by optical density at 600 nm. Twelve replicates were performed for each tested condition and the reported values are normalized to the control (RPMI-1640 media only).

Compound	effect on Candida and Staphylococcus biofilms in inhibition and disruption assays [1]	effect on C. albicans biofilms in inhibition and disruption assays [2]
N[C@@H](CC(=O)O)C(=O)O [Aspartic Acid, L-aspartic acid]	both inhibit and disrupt	both inhibited and disrupted
N[C@@H](CS)C(=O)O [Cysteine, L-cysteine]	both inhibit and disrupt	both inhibited and disrupted
N[C@@H](CCC(=O)O)C(=O)O [Glutamic Acid, L-glutamic acid]	both inhibit and disrupt	both inhibited and disrupted
